# Publication PMC10924921, “Mi-2β promotes immune evasion in melanoma by activating EZH2 methylation” (Nature Communications, 2024)
# Key:
# Test in all cases: biochemical
# Design in all cases: KINOMEscan active-site competition binding panel (468 kinase assays), per cent of control at 1000 nM
# Details in all cases: KINOMEscan per cent of control (binding competition); read-out: Percent Control
# ADCK4 = target: T1, ADCK4 (Homo sapiens, UniProt Q96D53)
# T1 construct: gene COQ8B
# Description: (§1) Figure S7 / Percent Control
# BLK = BLK (Homo sapiens, UniProt P51451)
# Description: as §1
# CSNK1E = CSNK1E (Homo sapiens, UniProt P49674)
# Description: as §1
# DRAK1 = target: T2, DRAK1 (Homo sapiens, UniProt Q9UEE5)
# T2 construct: gene STK17A
# Description: as §1
# EGFR(T790M) = EGFR(T790M) (Homo sapiens, UniProt P00533, T790M)
# EGFR(T790M), sequence (P00533 whole entry T790M): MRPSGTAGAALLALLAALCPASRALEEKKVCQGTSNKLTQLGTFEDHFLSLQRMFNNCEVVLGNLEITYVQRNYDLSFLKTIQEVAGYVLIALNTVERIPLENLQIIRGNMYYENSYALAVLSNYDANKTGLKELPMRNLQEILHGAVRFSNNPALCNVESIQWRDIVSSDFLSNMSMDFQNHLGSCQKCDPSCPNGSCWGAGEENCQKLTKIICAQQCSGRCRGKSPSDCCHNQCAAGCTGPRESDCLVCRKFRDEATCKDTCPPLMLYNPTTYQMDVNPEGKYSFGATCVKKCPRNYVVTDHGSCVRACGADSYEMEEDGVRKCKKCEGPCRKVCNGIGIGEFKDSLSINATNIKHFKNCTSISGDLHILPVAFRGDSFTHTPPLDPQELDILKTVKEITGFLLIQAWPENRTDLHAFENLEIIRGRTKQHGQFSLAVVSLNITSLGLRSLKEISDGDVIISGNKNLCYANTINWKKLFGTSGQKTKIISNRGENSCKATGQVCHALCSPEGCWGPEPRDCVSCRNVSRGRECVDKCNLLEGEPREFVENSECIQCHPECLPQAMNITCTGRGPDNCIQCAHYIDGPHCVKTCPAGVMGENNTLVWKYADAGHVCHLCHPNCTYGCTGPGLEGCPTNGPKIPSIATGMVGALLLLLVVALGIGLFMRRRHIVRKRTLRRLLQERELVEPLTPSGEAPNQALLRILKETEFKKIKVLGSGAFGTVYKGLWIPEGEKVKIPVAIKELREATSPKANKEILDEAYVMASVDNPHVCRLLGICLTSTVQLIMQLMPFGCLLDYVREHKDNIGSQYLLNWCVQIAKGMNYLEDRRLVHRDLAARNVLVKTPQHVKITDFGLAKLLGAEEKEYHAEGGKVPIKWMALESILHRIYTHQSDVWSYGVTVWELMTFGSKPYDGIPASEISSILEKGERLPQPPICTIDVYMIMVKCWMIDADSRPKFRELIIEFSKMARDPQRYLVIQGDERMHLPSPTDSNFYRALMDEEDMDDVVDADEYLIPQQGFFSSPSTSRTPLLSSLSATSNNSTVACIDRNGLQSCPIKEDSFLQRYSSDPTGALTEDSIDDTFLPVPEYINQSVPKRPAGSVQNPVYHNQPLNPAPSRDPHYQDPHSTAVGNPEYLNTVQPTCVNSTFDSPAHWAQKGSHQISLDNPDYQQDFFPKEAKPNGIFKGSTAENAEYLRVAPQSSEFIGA
# Description: as §1
# ERK2 = target: T3, ERK2 (Homo sapiens, UniProt P28482)
# T3 construct: gene MAPK1
# T3 sequence (P28482 whole entry): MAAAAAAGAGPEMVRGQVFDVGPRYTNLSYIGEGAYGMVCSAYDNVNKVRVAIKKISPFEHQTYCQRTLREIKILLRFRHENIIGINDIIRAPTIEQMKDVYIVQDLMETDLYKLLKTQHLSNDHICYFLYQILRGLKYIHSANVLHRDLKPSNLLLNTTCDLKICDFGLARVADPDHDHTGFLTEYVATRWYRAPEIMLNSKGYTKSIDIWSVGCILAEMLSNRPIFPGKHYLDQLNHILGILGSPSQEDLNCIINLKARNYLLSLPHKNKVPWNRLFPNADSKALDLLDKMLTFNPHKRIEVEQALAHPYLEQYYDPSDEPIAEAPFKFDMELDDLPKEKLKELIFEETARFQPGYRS
# Description: as §1
# HIPK1 = HIPK1 (Homo sapiens, UniProt Q86Z02)
# HIPK1, sequence (Q86Z02 whole entry): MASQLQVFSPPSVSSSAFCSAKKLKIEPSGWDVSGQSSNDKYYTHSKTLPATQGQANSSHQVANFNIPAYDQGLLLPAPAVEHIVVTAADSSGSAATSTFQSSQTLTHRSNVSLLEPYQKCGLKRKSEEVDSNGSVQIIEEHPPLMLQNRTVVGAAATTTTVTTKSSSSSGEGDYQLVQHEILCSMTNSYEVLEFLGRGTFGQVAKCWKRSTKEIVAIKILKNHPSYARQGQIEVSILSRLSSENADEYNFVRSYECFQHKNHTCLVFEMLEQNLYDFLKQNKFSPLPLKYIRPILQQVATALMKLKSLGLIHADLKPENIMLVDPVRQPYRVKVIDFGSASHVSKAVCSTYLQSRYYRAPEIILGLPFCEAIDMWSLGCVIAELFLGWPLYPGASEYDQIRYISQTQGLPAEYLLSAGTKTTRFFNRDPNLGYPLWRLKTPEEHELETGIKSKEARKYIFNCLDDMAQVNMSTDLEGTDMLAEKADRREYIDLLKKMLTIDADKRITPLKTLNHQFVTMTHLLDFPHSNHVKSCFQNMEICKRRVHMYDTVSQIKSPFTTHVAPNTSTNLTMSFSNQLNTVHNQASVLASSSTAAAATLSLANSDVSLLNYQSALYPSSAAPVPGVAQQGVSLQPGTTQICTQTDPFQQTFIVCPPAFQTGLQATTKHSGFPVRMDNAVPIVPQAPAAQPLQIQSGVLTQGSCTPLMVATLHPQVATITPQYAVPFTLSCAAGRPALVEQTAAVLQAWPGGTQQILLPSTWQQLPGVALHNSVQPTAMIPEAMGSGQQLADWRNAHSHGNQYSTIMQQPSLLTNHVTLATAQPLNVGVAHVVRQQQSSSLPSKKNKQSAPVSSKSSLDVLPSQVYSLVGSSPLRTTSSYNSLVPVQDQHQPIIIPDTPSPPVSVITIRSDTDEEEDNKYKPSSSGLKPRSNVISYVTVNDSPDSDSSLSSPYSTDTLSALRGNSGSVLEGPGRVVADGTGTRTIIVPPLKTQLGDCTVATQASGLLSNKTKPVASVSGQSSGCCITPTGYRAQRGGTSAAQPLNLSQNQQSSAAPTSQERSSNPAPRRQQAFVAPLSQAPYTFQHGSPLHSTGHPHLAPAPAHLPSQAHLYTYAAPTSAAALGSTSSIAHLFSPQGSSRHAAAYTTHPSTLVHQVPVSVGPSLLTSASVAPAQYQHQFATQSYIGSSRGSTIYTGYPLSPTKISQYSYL
# Description: as §1
# HPK1 = target: T4, HPK1 (Homo sapiens, UniProt Q92918)
# T4 construct: gene MAP4K1
# Description: as §1
# KIT = KIT (Homo sapiens, UniProt P10721)
# Description: as §1
# LOK = target: T5, LOK (Homo sapiens, UniProt O94804)
# T5 construct: gene STK10
# Description: as §1
# LRRK2(G2019S) = LRRK2(G2019S) (Homo sapiens, UniProt Q5S007, G2019S)
# Description: as §1
# MAK = MAK (Homo sapiens, UniProt P20794)
# Description: as §1
# MAP3K3 = MAP3K3 (Homo sapiens, UniProt Q99759)
# MAP3K3, sequence (Q99759 whole entry): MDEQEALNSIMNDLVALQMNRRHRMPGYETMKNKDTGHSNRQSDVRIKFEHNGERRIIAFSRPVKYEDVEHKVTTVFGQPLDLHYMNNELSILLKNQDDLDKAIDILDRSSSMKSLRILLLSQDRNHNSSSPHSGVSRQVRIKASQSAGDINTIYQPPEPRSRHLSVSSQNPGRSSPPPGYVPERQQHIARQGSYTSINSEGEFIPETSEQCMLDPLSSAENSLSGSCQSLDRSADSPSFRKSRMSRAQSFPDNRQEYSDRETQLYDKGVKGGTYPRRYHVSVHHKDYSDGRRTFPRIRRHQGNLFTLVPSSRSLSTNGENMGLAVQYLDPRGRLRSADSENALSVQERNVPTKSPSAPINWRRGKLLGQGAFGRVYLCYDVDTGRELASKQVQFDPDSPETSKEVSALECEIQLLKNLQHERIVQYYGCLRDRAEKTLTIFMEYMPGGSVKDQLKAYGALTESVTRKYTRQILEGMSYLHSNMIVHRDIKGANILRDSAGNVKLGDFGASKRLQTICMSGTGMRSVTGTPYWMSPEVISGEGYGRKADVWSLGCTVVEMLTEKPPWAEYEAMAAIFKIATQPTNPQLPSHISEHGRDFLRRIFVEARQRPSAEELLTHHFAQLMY
# Description: as §1
# MET(Y1235D) = MET(Y1235D) (Homo sapiens, UniProt P08581, Y1235D)
# Description: as §1
# MKNK2 = MKNK2 (Homo sapiens, UniProt Q9HBH9)
# Description: as §1
# MLK1 = target: T6, MLK1 (Homo sapiens, UniProt P80192)
# T6 construct: gene MAP3K9
# Description: as §1
# MRCKB = target: T7, MRCKB (Homo sapiens, UniProt Q9Y5S2)
# T7 construct: gene CDC42BPB
# T7 sequence (Q9Y5S2 whole entry): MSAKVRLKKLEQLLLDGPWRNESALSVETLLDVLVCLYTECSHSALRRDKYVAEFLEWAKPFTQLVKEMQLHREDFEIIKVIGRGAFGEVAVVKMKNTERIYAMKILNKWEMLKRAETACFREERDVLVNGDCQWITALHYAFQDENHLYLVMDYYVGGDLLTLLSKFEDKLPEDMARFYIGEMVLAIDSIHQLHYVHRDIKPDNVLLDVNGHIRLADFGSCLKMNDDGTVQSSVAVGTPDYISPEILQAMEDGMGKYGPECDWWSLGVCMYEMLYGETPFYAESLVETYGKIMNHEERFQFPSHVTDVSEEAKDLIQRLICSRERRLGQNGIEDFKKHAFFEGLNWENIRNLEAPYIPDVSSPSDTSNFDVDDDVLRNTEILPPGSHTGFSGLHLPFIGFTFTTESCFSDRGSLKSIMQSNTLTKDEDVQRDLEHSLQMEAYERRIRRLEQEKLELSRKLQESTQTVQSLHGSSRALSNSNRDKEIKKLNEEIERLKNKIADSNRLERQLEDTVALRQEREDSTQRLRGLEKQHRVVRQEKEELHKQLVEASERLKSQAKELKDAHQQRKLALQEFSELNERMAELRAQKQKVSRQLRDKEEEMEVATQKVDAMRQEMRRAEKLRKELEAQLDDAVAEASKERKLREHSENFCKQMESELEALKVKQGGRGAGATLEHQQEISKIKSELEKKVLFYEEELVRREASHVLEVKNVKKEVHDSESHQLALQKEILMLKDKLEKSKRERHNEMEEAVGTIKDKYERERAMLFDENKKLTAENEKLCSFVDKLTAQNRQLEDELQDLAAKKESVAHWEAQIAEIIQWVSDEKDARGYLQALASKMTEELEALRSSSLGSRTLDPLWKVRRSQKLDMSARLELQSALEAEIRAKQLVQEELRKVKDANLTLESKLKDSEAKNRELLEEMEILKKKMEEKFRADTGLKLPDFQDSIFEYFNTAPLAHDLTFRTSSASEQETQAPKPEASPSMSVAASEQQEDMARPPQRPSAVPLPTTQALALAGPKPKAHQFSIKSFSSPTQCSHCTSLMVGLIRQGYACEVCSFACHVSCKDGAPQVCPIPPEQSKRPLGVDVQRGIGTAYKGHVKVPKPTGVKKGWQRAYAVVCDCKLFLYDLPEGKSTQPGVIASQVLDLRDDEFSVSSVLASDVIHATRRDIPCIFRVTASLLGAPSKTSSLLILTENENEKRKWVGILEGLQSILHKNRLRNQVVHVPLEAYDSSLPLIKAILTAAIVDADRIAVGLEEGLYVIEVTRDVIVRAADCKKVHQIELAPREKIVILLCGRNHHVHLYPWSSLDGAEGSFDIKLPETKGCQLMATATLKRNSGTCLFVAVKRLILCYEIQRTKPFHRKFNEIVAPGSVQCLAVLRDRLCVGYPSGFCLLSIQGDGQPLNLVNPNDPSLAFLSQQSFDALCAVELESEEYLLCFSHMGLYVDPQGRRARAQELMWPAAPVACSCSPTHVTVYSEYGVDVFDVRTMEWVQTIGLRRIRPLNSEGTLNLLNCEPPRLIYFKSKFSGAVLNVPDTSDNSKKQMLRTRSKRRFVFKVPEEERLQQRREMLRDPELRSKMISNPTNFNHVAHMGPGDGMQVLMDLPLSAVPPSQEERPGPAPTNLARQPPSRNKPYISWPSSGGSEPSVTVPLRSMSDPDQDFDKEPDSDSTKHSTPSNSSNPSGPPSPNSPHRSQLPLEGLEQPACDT
# Description: as §1
# NEK9 = NEK9 (Homo sapiens, UniProt Q8TD19)
# Description: as §1
# PRKG1 = PRKG1 (Homo sapiens, UniProt Q13976)
# Description: as §1
# PRKG2 = PRKG2 (Homo sapiens, UniProt Q13237)
# Description: as §1
# RET(V804M) = RET(V804M) (Homo sapiens, UniProt P07949, V804M)
# Description: as §1
# [1] = target: T8, RSK2(Kin.Dom.2-C-terminal) (Homo sapiens, UniProt P51812)
# T8 construct: gene RPS6KA3; Kin.Dom.2-C-terminal
# Description: as §1
# STK39 = STK39 (Homo sapiens, UniProt Q9UEW8)
# Description: as §1
# ULK2 = ULK2 (Homo sapiens, UniProt Q8IYT8)
# Description: as §1
smiles,measurement,setting,value
Cn1c(=O)[nH]c2ccc(-c3cccc(C(=O)NC4CCn5ccnc5C4)c3)cc21 (stereo not drawn) [Z36-MP5],remaining binding at 1 µM,ADCK4,64%
same,remaining binding at 1 µM,BLK,100%
same,remaining binding at 1 µM,CSNK1E,49%
same,remaining binding at 1 µM,DRAK1,96%
same,remaining binding at 1 µM,EGFR(T790M),44%
same,remaining binding at 1 µM,ERK2,81%
same,remaining binding at 1 µM,HIPK1,100%
same,remaining binding at 1 µM,HPK1,83%
same,remaining binding at 1 µM,KIT,95%
same,remaining binding at 1 µM,LOK,90%
same,remaining binding at 1 µM,LRRK2(G2019S),59%
same,remaining binding at 1 µM,MAK,88%
same,remaining binding at 1 µM,MAP3K3,55%
same,remaining binding at 1 µM,MET(Y1235D),93%
same,remaining binding at 1 µM,MKNK2,82%
same,remaining binding at 1 µM,MLK1,98%
same,remaining binding at 1 µM,MRCKB,92%
same,remaining binding at 1 µM,NEK9,83%
same,remaining binding at 1 µM,PRKG1,64%
same,remaining binding at 1 µM,PRKG2,88%
same,remaining binding at 1 µM,RET(V804M),36%
same,remaining binding at 1 µM,[1],63%
same,remaining binding at 1 µM,STK39,60%
same,remaining binding at 1 µM,ULK2,59%
